Laboratory results as given in patent US20220370416A1, “COMPOUNDS AND METHODS FOR TARGETED DEGRADATION OF KRAS” (Arvinas Operations, Inc., priority 2020, published 2022).

Molecular target: HiBit-KRAS^G12C (Homo sapiens, UniProt P01116, G12C)
Assay: HiBit degradation assay in SW1573 HiBit-KRas^G12C cells
Type: cell-based
Parameters: expressed in transfected cells; host or cells: SW1573 (clone E6), modified pcDNA3.1 vector, TK promoter
Details: 0.1% DMSO, 24 hours; for Dmax: SW1573, SW1573 HiBit-KRas^G12C, read-out: KRas^G12C-HiBit (SW1573; 0.1% DMSO) Dmax**; for DC50: SW1573 HiBit-KRas^G12C, read-out: KRas^G12C-HIBit (SW1573; 0.1% DMSO) DC50*
Procedure: Reagents. SW1573 (CRL-2170) and MiaPaCa-2 (CRL-1420) cells were purchased from ATCC. Both cell lines are […] for the G12C mutation in KRAS. SW1573 cells were cultured in DMEM+F12+Glutamax (+Sodium Bicarbonate, +sodium pyruvate, Thermofisher scientific, #10565) supplemented with 10% FBS (Thermofisher scientific, #2060357) and 1% Antibiotic-Antimycotic (Thermofisher scientific, #15240096). MiaPaCa-2 cells were cultured in DMEM+Glutamax media (Thermofisher scientific, #10566) supplemented with 10% FBS (Thermofisher scientific, #2060357) and 1% Antibiotic-Antimycotic (Thermofisher scientific, #15240096). For degradation assays, 384 well plates were purchased from Corning (Corning® CellBIND® 384-well Flat Clear Bottom Black Polystyrene Microplates, Low Flange, #3770). Gambogic acid was purchased from Selleckchem (#S2448). Alamar blue was purchased from Thermofisher scientific (A50101) and used according to manufacturer instructions. The Nano-Glo® HiBit Lytic Detection System and Nano-Glo® HiBit Blotting System were purchased from Promega (#N3050 and #N2410) and used according to manufacturer instructions.
To create the SW1573 HiBit-KRAS^G12C cell line, the nucleotide sequence encoding the 11 amino acid HiBit tag from Promega (Schwinn, M. K. et al. (2018) CRISPR-mediated tagging of endogenous proteins with a luminescent peptide. ACS Chem. Biol. 13(2), 467-474) was appended to the N-terminus of the KRAS^G12C coding sequence. This synthesized DNA was cloned into a modified pcDNA3.1 vector under the control of the thymidine kinase (TK) promoter. This HiBit-KRAS^G12C expressing plasmid was transfected into parental SW1573 cells and colonies were selected using 400 μg/mL zeocin. The resulting clonal lines were screened for expression of HiBit-KRAS^G12C protein using Nano-Glo® HiBit Blotting System. A luminescent band of the correct size for HiBit-KRAS^G12C was detected in several clones. Clone E6 was selected for further studies.
Either SW1573 HiBit-KRas^G12C or MiaPaCa-2 HiBit-KRas^G12C cells were plated at 9000 cells/well in a 384 well plate (Corning #3770). Exemplary heterobifunctional molecules and positive controls were diluted in the appropriate cell media and applied to the plated cells resulting in a final concentration titration of 10 μM to 20 nM in either 0.1% or 0.5% dimethyl sulfoxide (DMSO). Gambogic acid was used as a positive control for cytotoxicity and titrated from 10 μM to 78 nM. All assays were performed in triplicate. Cells were treated with compounds for 24 hours at 37° C. in an incubator containing 5% CO2. Following treatment, alamar blue was used to determine if any compounds led to a loss in cell viability after 24 hours. The 10× alamar blue reagent was added to a final concentration of 1× as recommended by the manufacturer and cells were returned to the incubator for 4 hours. Plates were then allowed to equilibrate to room temperature and fluorescence was measured using a Perkin-Elmer EnVision. After completion of the fluorescence read, the liquid from each well was removed and the cells were washed with PBS. The Nano-Glo® HiBiT detection reagent was prepared according to the manufacturer's instructions and added to each well after the PBS wash was removed. Following incubation at room temperature for 45 minutes, the luminescence was read using the ultra-sensitive luminescence aperture on the Envision instrument.
Fluorescence values from the alamar blue treatment were normalized to the DMSO only control for each compound titration. We hypothesized that compounds that led to a ≥50% loss in cell viability of the KRAS-independent SW1573 HiBit-KRas^G12C cells were likely generally cytotoxic and loss of HiBit-KRAS^G12C signal from these compounds may be due to lower cell number and not specific KRAS^G12C degradation. These points were therefore excluded from the data analysis for degradation. […]

HiBit-KRAS^G12C, sequence (P01116 1-186 isoform P01116-2 G12C limits assumed): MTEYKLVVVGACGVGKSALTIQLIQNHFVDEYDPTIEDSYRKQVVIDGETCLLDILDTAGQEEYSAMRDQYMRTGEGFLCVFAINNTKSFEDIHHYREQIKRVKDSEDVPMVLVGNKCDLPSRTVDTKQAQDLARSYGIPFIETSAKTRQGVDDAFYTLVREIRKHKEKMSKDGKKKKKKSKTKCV

Row | Compound | Dmax [%] | DC50 [nM]
1 | C=CC(=O)N1CCN(c2nc(O[C@H](C)CN3CCC(OCCOCC(=O)N[C@H](C(=O)N4C[C@H](O)C[C@H]4C(=O)N[C@@H](C)c4ccc(-c5scnc5C)cc4)C(C)(C)C)CC3)nc3c(Oc4c(Cl)c(F)cc5[nH]ncc45)nc(Cl)cc23)CC1 [Compound 26, (2S,4R)-1-[(2S)-2-{2-[2-({1-[(2R)-2-({6-chloro-8-[(5-chloro-6-fluoro-1H-indazol-4-yl)oxy]-4-[4-(prop-2-enoyl)piperazin-1-yl]pyrido[3,4-d]pyrimidin-2-yl}oxy)propyl]piperidin-4-yl}oxy)ethoxy]acetamido}-3,3-dimethylbutanoyl]-4-hydroxy-N-[(1S)-1-[4-(4-methyl-1,3-thiazol-5-yl)phenyl]ethyl]pyrrolidine-2-carboxamide] | 35 to 70 | > 1000
2 | C=C(F)C(=O)N1CCN(c2nc(O[C@H](C)CN3CCC(COCC(=O)N[C@H](C(=O)N4C[C@H](O)C[C@H]4C(=O)N[C@@H](C)c4ccc(-c5scnc5C)cc4)C(C)(C)C)CC3)nc3c(F)c(-c4cc(O)cc5ccccc45)c(Cl)cc23)CC1 [Compound 27, (2S,4R)-1-[(2S)-2-[2-({1-[(2R)-2-({6-chloro-8-fluoro-4-[4-(2-fluoroprop-2-enoyl)piperazin-1-yl]-7-(3-hydroxynaphthalen-1-yl)quinazolin-2-yl}oxy)propyl]piperidin-4-yl}methoxy)acetamido]-3,3-dimethylbutanoyl]-4-hydroxy-N-[(1S)-1-[4-(4-methyl-1,3-thiazol-5-yl)phenyl]ethyl]pyrrolidine-2-carboxamide] | < 35 | > 1000
3 | C=CC(=O)N1CCN(c2nc(OCCN3CCC(OCCOCC(=O)N[C@H](C(=O)N4C[C@H](O)C[C@H]4C(=O)N[C@@H](C)c4ccc(-c5scnc5C)cc4)C(C)(C)C)CC3)nc3c2CCN(c2cccc4cccc(C)c24)C3)C[C@@H]1CC#N [Compound 30, (2S,4R)-1-[(2S)-2-{2-[2-({1-[2-({4-[(3S)-3-(cyanomethyl)-4-(prop-2-enoyl)piperazin-1-yl]-7-(8-methylnaphthalen-1-yl)-5H,6H,7H,8H-pyrido[3,4-d]pyrimidin-2-yl}oxy)ethyl]piperidin-4-yl}oxy)ethoxy]acetamido}-3,3-dimethylbutanoyl]-4-hydroxy-N-[(1S)-1-[4-(4-methyl-1,3-thiazol-5-yl)phenyl]ethyl]pyrrolidine-2-carboxamide] | < 35 | > 1000
4 | C=CC(=O)N1CCN(c2nc(O[C@H](C)CN3CCC(CN4CC5(CN(CC(=O)N[C@H](C(=O)N6C[C@H](O)C[C@H]6C(=O)N[C@@H](C)c6ccc(-c7scnc7C)cc6)C(C)(C)C)C5)C4)CC3)nc3c(F)c(-c4cc(O)cc5ccccc45)c(Cl)cc23)CC1 [Compound 35, (2S,4R)-1-[(2S)-2-{2-[6-({1-[(2R)-2-{[6-chloro-8-fluoro-7-(3-hydroxynaphthalen-1-yl)-4-[4-(prop-2-enoyl)piperazin-1-yl]quinazolin-2-yl]oxy}propyl]piperidin-4-yl}methyl)-2,6-diazaspiro[3.3]heptan-2-yl]acetamido}-3,3-dimethylbutanoyl]-4-hydroxy-N-[(1S)-1-[4-(4-methyl-1,3-thiazol-5-yl)phenyl]ethyl]pyrrolidine-2-carboxamide] |  | > 1000
5 | C=CC(=O)N1CCN(c2nc(O[C@H](C)CN3CCC(CC(=O)N[C@H](C(=O)N4C[C@H](O)C[C@H]4C(=O)N[C@@H](C)c4ccc(-c5scnc5C)cc4)C(C)(C)C)CC3)nc3c(F)c(-c4cc(O)cc5ccccc45)c(Cl)cc23)CC1 [Compound 38, (2S,4R)-1-[(2S)-2-(2-{1-[(2R)-2-{[6-chloro-8-fluoro-7-(3-hydroxynaphthalen-1-yl)-4-[4-(prop-2-enoyl)piperazin-1-yl]quinazolin-2-yl]oxy}propyl]piperidin-4-yl}acetamido)-3,3-dimethylbutanoyl]-4-hydroxy-N-[(1S)-1-[4-(4-methyl-1,3-thiazol-5-yl)phenyl]ethyl]pyrrolidine-2-carboxamide] |  | > 1000
6 | C=CC(=O)N1CCN(c2nc(O[C@H](C)CN3CC(COCC(=O)N[C@H](C(=O)N4C[C@H](O)C[C@H]4C(=O)N[C@@H](C)c4ccc(-c5scnc5C)cc4)C(C)(C)C)C3)nc3c(F)c(-c4cc(O)cc5ccccc45)c(Cl)cc23)CC1 [Compound 42, (2S,4R)-1-[(2S)-2-[2-({1-[(2R)-2-{[6-chloro-8-fluoro-7-(3-hydroxynaphthalen-1-yl)-4-[4-(prop-2-enoyl)piperazin-1-yl]quinazolin-2-yl]oxy}propyl]azetidin-3-yl}methoxy)acetamido]-3,3-dimethylbutanoyl]-4-hydroxy-N-[(1S)-1-[4-(4-methyl-1,3-thiazol-5-yl)phenyl]ethyl]pyrrolidine-2-carboxamide] | < 35 | > 1000
7 | C=CC(=O)N1CCN(c2nc(O[C@H](C)CN3CCC(OCCOCC(=O)N[C@H](C(=O)N4C[C@H](O)C[C@H]4C(=O)N[C@@H](C)c4ccc(-c5scnc5C)cc4)C(C)(C)C)CC3)nc3c(F)c(-c4c(O)cccc4F)c(Cl)cc23)C[C@H]1C [Compound 44, (2S,4R)-1-[(2S)-2-{2-[2-({1-[(2R)-2-{[6-chloro-8-fluoro-7-(2-fluoro-6-hydroxyphenyl)-4-[(3R)-3-methyl-4-(prop-2-enoyl)piperazin-1-yl]quinazolin-2-yl]oxy}propyl]piperidin-4-yl}oxy)ethoxy]acetamido}-3,3-dimethylbutanoyl]-4-hydroxy-N-[(1S)-1-[4-(4-methyl-1,3-thiazol-5-yl)phenyl]ethyl]pyrrolidine-2-carboxamide] |  | > 1000
8 | C=CC(=O)N1CCN(c2nc(O[C@H](C)CN3CCC(CN(C)[C@H]4C[C@@H](OCC(=O)N[C@H](C(=O)N5C[C@H](O)C[C@H]5C(=O)N[C@@H](C)c5ccc(-c6scnc6C)cc5)C(C)(C)C)C4)CC3)nc3c(F)c(-c4cc(O)cc5ccccc45)c(Cl)cc23)CC1 [Compound 47, (2S,4R)-1-[(2S)-3,3-dimethyl-2-(2-[(1s,3s)-3-[({1-[(2R)-2-{[6-chloro-8-fluoro-7-(3-hydroxynaphthalen-1-yl)-4-[4-(prop-2-enoyl)piperazin-1-yl]quinazolin-2-yl]oxy}propyl]piperidin-4-yl}methyl)(methyl)amino]cyclobutoxy]acetamido}butanoyl]-4-hydroxy-N-[(1S)-1-[4-(4-methyl-1,3-thiazol-5-yl)phenyl]ethyl]pyrrolidine-2-carboxamide] |  | > 1000
9 | C=CC(=O)N1CCN(c2nc(O[C@H](C)CN3CCN(CCCC4CCN(CC(=O)N[C@H](C(=O)N5C[C@H](O)C[C@H]5C(=O)N[C@@H](C)c5ccc(-c6scnc6C)cc5)C(C)(C)C)CC4)CC3)nc3c(F)c(-c4cc(O)cc5ccccc45)c(Cl)cc23)CC1 [Compound 52, (2S,4R)-1-[(2S)-2-{2-[4-(3-{4-[(2R)-2-{[6-chloro-8-fluoro-7-(3-hydroxynaphthalen-1-yl)-4-[4-(prop-2-enoyl)piperazin-1-yl]quinazolin-2-yl]oxy}propyl]piperazin-1-yl}propyl)piperidin-1-yl]acetamido}-3,3-dimethylbutanoyl]-4-hydroxy-N-[(1S)-1-[4-(4-methyl-1,3-thiazol-5-yl)phenyl]ethyl]pyrrolidine-2-carboxamide] |  | > 1000
